From patent publication US20030148954A1, “Agents and methods for modulating activator protein-1-mediated cellular processes” (Wisconsin Alumni Research Foundation, priority 2001, published 2003)
Entries after “also recorded” stand apart in the source; their conditions may differ.

What was measured:
Assay type in all cases: cell-based, human
[1] = test system: AP-1; assay: AP-1 luciferase reporter, transient transfection of K562 cells
From the text: (§1) Plasmids—The pBabe-NIC-1 (pNIC-1) expression vector encoding constitutively active Notch-1 (NIC-1) was described previously (36,37,51). This vector was derived from the pBabe-puro retroviral vector and includes a cDNA sequence encoding amino acids 1759-2556 of human Notch-1 with a Myc tag fused to its carboxyl terminus. Human NIC-1 deletion mutants were generated by PCR using a full-length human Notch-1 expression vector as the template. The Notch-dependent reporter plasmid containing four CBF1 binding sites and an simian virus 40 promoter fused to luciferase (p4×CBF1luc) was described previously (52). The AP-1 reporter plasmid (p1×AP1luc) containing a collagenase promoter fragment (−73/+67) with a single AP-1 binding site in the luciferase reporter vector pGL2-basic (Promega) was described previously (53). The NF-κB reporter plasmid (p3×κBluc) containing three NF-κB binding sites and a minimal promoter fused to luciferase was a kind gift of Dr. Shigeki Miyamoto (University of Wisconsin Medical School). The pBabe-H-Ras(12V) expression vector encoding constitutively active H-Ras was a kind gift of Dr. Charming Der (University of North Carolina-Chapel Hill). This vector was derived from the pBabe-puro retroviral vector and includes a cDNA encoding H-Ras with a Gly to Val mutation at amino acid 12.
Transient Transfections—K562 cells (5×10^5) were collected by centrifugation at 240×g for 8 min at 4° C. and resuspended in 4 ml of complete IMEM. Plasmid DNAs (1 μg of reporter and 2 μg of effector) were added to 150 μl of IMEM, incubated with Superfect (4 μl/1 μg DNA; Qiagen) for 10 min at room temperature and then added to cells.
For each transfection, cells were incubated for 26 h after transfection and then treated with TPA (final concentration: 5 nM) or the vehicle (DMSO). After incubating for another 12 or 16 h, cells were harvested and assayed for luciferase activity. Luciferase activity was normalized by the protein content of the lysates, determined by Bradford assay using γ-globulin as a standard.

[2] = test system: NF-κB; assay: NF-κB luciferase reporter (p3×κBluc), transient transfection of K562 cells; details: TPA
From the text: as §1, with “The pBabe-H-Ras(12V) expression vector encoding constitutively active H-Ras was a kind gift of Dr. Charming Der (University of North Carolina-Chapel Hill). This vector was derived from the pBabe-puro retroviral vector and includes a cDNA encoding H-Ras with a Gly to Val mutation at amino acid 12.” left out
(§2) For each transfection, cells were incubated for 26 h after transfection and then treated with TPA (final concentration: 5 nM) or the vehicle (DMSO). […] Luciferase activity was normalized by the protein content of the lysates, determined by Bradford assay using γ-globulin as a standard.

[3] = test system: AP-1; assay: AP-1 luciferase reporter, transient transfection of HeLa cells; details: TPA 5 nM 16 h
From the text: as §1, with “The pBabe-H-Ras(12V) expression vector encoding constitutively active H-Ras was a kind gift of Dr. Charming Der (University of North Carolina-Chapel Hill). This vector was derived from the pBabe-puro retroviral vector and includes a cDNA encoding H-Ras with a Gly to Val mutation at amino acid 12.” left out
as §2

[4] = test system: IL-8; assay: Northern blotting of IL-8 transcripts in K562-Babe and K562-NIC-1 cells; details: 5 nM TPA 12 h, stably transfected NIC-1
Procedure: (§3) Stable Transfection—K562 cells were stably transfected by electroporation with a Bio-Rad Gene pulser electroporator. Cells (5×10^6) were washed with ice-cold PBS, resuspended in 0.5 ml of ice-cold PBS, mixed with 5 μg linearized plasmid DNA, and subjected to electroporation (960 microfarad; 220 V) in a 0.4 cm-wide electroporation cuvette (BTX). pBabe and pNIC-1 were linearized with NotI. Cells were then added to 20 ml of complete IMEM, grown for 48 h, and diluted in complete IMEM containing 1.5 μg/ml puromycin (pools of K562-Babe and K562-NIC-1 cells). Stably transfected cells were analyzed for erythroid differentiation as soon as the pools were generated by benzidine staining to reduce the probability of phenotypic changes that may result from prolonged growth.
Northern Blotting—Total RNA from K562-Babe and K562-NIC-1 cells was extracted with Triazol (Life Technologies, Inc.). Ten μg of RNA per sample was electrophoresed on a 1% agarose, 6.6% formaldehyde gel and then transferred overnight to a Magnacharge nylon membrane (Osmonics). RNA was cross-linked to the membrane by UV irradiation. Membranes were prehybridized for 30 min at 60° C. in ExpressHyb hybridization solution (Clontech). […] Radioactivity was quantitated by PhosphorImager analysis with ImageQuant software (Molecular Dynamics).

[5] = test system: JNK; assay: Western blot with phospho-specific antibodies, JNK; details: K562-NIC-1 versus K562-Babe, 5 nM TPA 30 min
Procedure: as §3
To measure the phosphorylation state of components of the MAPK pathway, K562-Babe and K562-NIC-1 cells (1×10^6) were collected after treatment with 5 nM TPA or DMSO for 30 min. Cells were washed once with ice-cold PBS, cell pellets were resuspended in 30 μl ice-cold PBS and were immediately boiled in 70 μl SDS sample buffer for 10 min. Proteins (10 μl) were resolved by SDS-PAGE on a 10% acrylamide gel and transferred to Immobilon P membrane (Millipore). […] Antigen-antibody complexes were detected with ECL Plus™ (Amersham Life Science) according to manufacturer's instructions.

NIC-1: constitutively active Notch-1 intracellular domain, amino acids 1759-2556 of human Notch-1 with carboxyl-terminal Myc tag, expressed from pBabe-NIC-1
component of TPA-induced AP-1 reporter activity insensitive to NIC-1 ([1]; K562, both AP-1 reporters): ~30% | inhibition of H-Ras(12V)-activated AP-1 reporter activity ([1]; K562, cotransfected pBabe-H-Ras(12V)): almost completely inhibited; also recorded: completely inhibits | concentration response curve for AP-1 repression relative to CSL-dependent activation ([1]; K562, increasing amounts of NIC-1 expression vector, TPA 5 nM 12 h): slightly shifted to the left | repression of TPA-induced AP-1 reporter activity ([1]; K562, p1×AP1luc, TPA 5 nM 12 or 16 h): repressed | degree of repression of AP-1 reporter with tandem AP-1 binding sites upstream of a β-globin promoter ([1]; K562, pβ106(AP1)2luc, TPA): comparable to that seen with the MMP1 promoter | inhibition of TPA-inducible AP-1 activity ([1]; K562, range of TPA concentrations, 16 h): 70% | effect on TPA-induced NF-κB-dependent reporter activity [2]: no effect | repression of TPA-induced AP-1-mediated activation [3]: repressed | TPA induction of IL-8 transcript levels in K562-NIC-1 versus K562-Babe cells [4]: considerably lower | effect on TPA-induced or basal phosphorylation of JNK [5]: did not affect
